Assay [1] has as its target T1, BRD4 Bromodomain 2 (BRD4 BD2) (Homo sapiens, UniProt O60885).
T1 construct: 333-460 were cloned, expressed, and purified to homogeneity
The experiment in a line: AlphaScreen binding assay, BRD4 BD2. The conditions noted are these: His-tagged BRD4 BD2 100 nM, biotinylated H4 (1-21) K5/8/12/16 tetra-acetylated peptide 100 nM, compounds listed under IC50 range headings. The essentials:
(§1)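 Compound dilution series were mixed with His-tagged BRD4 bromodomain and biotinylated tetra-acetylated H4 (1-21) peptide at pH 7.3 (BD1 and peptide at 50 nM, BD2 and peptide at 100 nM). Donor and acceptor beads were then added, and plates were equilibrated at least 1 h before reading. IC50 values were fitted with a four-parameter logistic model.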
Background: Bead proximity is the source of the signal in Alpha formats.

The target in assay [2] is T2, BRD4 Bromodomain 1 (BRD4 BD1) (Homo sapiens, UniProt O60885).
T2 construct: 44-168 and BRD4 BD2
Briefly: AlphaScreen binding assay, BRD4 BD1. The conditions noted are these: His-tagged BRD4 BD1 50 nM, biotinylated H4 (1-21) K5/8/12/16 tetra-acetylated peptide 50 nM, compounds listed under IC50 range headings. The essentials: as §1

Assay [3] concerns acute myelocytic leukemia (AML) cell line MV4-11. Briefly: Oncology cell growth assay (3-day proliferation, CellTiter-Glo). It is filed as cell-based. As to conditions: Homo sapiens, MV4-11, 72 h, MV4-11 cells, 3000 cells/well, compounds listed under IC50 range headings, read-out: MV411 IC50 (gIC50, inhibition of proliferation). The essentials:
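72 h, 37° C, 5% CO2; MV4-11, 3000 cells/well, RPMI 1640 + 10% FBS. Compound final 10, 3.3, 1.1, 0.37, 0.12, 0.041, 0.013, 0.0045 μM. Readout CellTiter-Glo luminescence; gIC50 by 4-parameter logistic fit, normalised to DMSO and no-cell background.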

pIC50: −log10 of the molar value.

In the case of `CC=Cn1c(Oc2c(-c3cnn(C4CC4)c3)ccc3c2CC[C@H](C)N3C(C)=O)nc2ccccc21` (single isomer, unassigned) [I-352], the pIC50 is 6.30 to 7.30 in assay [1], 5.00 to 6.00 in assay [2] and 6.00 to 6.30 in assay [3].

On to `COC(=O)N1c2ccc(-c3cnn(CCS(C)(=O)=O)c3)c(Oc3ncc(C)cn3)c2CC[C@@H]1C` [I-582], for which the pIC50 was 6.30 to 7.30 in assay [1], 5.00 to 6.00 in assay [2] and < 6.00 in assay [3].

Consider `COC(=O)N1c2ccc(-c3cnn(C4CC4)c3)c(OCCC(F)(F)F)c2CC[C@@H]1C` [I-13, (S)-methyl 6-(1-cyclopropyl-1H-pyrazol-4-yl)-2-methyl-5-(3,3,3-trifluoropropoxy)-3,4-dihydroquinoline-1(2H)-carboxylate], for which the pIC50 was 6.30 to 7.30 in assay [1], 5.00 to 6.00 in assay [2] and 6.00 to 6.30 in assay [3].

As for `COC(=O)N1c2ccc(-c3cnn([C@@H]4CCNC[C@@H]4F)c3)c(OC3CCC3)c2CC[C@@H]1C` [I-361, methyl (S)-5-cyclobutoxy-6-(1-((3S,4R)-3-fluoropiperidin-4-yl)-1H-pyrazol-4-yl)-2-methyl-3,4-dihydroquinoline-1(2H)-carboxylate], the pIC50 in assay [1] was > 7.30; in assay [2], > 7.00; in assay [3] it was > 6.30.

Regarding `CC(=O)N1c2ccc(-c3cnn(C4CC4)c3)c(Oc3ccccc3)c2CCC1C` (stereo not drawn) [I-597], the pIC50 is 6.30 to 7.30 in assay [1], 5.00 to 6.00 in assay [2] and > 6.30 in assay [3].

On to `CCCOc1c(C2CCN(C(=O)NCC)CC2)ccc2c1CC[C@H](C)N2C(C)=O` [I-356, (S)-4-(1-acetyl-2-methyl-5-propoxy-1,2,3,4-tetrahydroquinolin-6-yl)-N-ethylpiperidine-1-carboxamide], for which the figures for the pIC50 in assay [1], in assay [2] and in assay [3] were 6.30 to 7.30, ≤ 5.00 and < 6.00, respectively.

In the case of `CC(=O)N1c2ccc(-c3cnn(C4CC4)c3)c(OCC3CCCCC3)c2CC[C@@H]1C` [I-402], the pIC50 in assay [1] was 6.30 to 7.30; in assay [2] it was 6.00 to 7.00; in assay [3] it was 6.00 to 6.30.

Take `COC(=O)N1c2ccc(-c3cnn(CCO)c3)c(OC3CCC3)c2CC[C@@H]1C` [I-446]: the pIC50 in assay [1] was 6.30 to 7.30; in assay [2], 6.00 to 7.00; in assay [3], > 6.30.

Regarding `CC(=O)N1c2ccc(-c3cnn(C4CC4)c3)c(OCC3CCC3)c2CC[C@@H]1C` [I-392], the pIC50 is 6.30 to 7.30 in assay [1], 6.00 to 7.00 in assay [2] and > 6.30 in assay [3].

As to `CC(=O)N1c2ccc(-c3cnn(C4CCNCC4)c3)c(Oc3ncc(C4CC4)cn3)c2CC[C@@H]1C` [I-518], the figures for the pIC50 in assay [1], in assay [2] and in assay [3] were 6.30 to 7.30, 6.00 to 7.00 and > 6.30, respectively.

As to `CC(=O)N1c2ccc(-c3cnn(C4CC4)c3)c(Oc3ccnc(C(F)(F)F)n3)c2CC[C@@H]1C` [I-93, (S)-1-(6-(1-cyclopropyl-1H-pyrazol-4-yl)-2-methyl-5-(2-(trifluoromethyl)pyrimidin-4-yloxy)-3,4-dihydroquinolin-1(2H)-yl)ethanone], the pIC50 in assay [1] was 6.30 to 7.30; in assay [2], 6.00 to 7.00; in assay [3], > 6.30.

`CC(=O)N1c2ccc(-c3cnn(CC(C)(C)O)c3)c(Oc3ncc(F)cn3)c2CC[C@@H]1C` [I-551]: the pIC50 is > 7.30 in assay [1], 6.00 to 7.00 in assay [2] and > 6.30 in assay [3].

For the compound `CC(=O)N1c2ccc(-c3cnn(CCS(C)(=O)=O)c3)c(Oc3ncc(F)cn3)c2CC[C@@H]1C` [I-550], the values for the pIC50 in assay [1], in assay [2] and in assay [3] were > 7.30, 6.00 to 7.00 and > 6.30, respectively.

For `COC(=O)N1c2ccc(-c3cnn(C4CC4)c3)c(OCC(=O)N3CCCCC3)c2CC[C@@H]1C` [I-24, (S)-methyl 6-(1-cyclopropyl-1H-pyrazol-4-yl)-2-methyl-5-(2-oxo-2-(piperidin-1-yl)ethoxy)-3,4-dihydroquinoline-1(2H)-carboxylate], the pIC50 in assay [1] was > 7.30; in assay [2], 6.00 to 7.00; in assay [3], < 6.00.

With `CC(=O)N1c2ccc(-c3ccc(OCCN(C)C)cc3)c(OCC(=O)N(C)C)c2CC[C@@H]1C` [I-487], the pIC50 in assay [1] is ≤ 6.30; in assay [2], 5.00 to 6.00; in assay [3], < 6.00.

`CC(=O)N1c2ccc(-c3cnn(C4CC4)c3)c(OCS(=O)(=O)N(C)C)c2CC[C@@H]1C` [I-46, (S)-(1-acetyl-6-(1-cyclopropyl-1H-pyrazol-4-yl)-2-methyl-1,2,3,4-tetrahydroquinolin-5-yloxy)-N,N-dimethylmethanesulfonamide]: the pIC50 was 6.30 to 7.30 in assay [1], 5.00 to 6.00 in assay [2] and 6.00 to 6.30 in assay [3].

Consider `CC1CCc2c(ccc(-c3cnn(C4CC4)c3)c2Oc2ccccc2)N1C(=O)C1CC1` (stereo not drawn) [I-598], for which the pIC50 in assay [1] was 6.30 to 7.30; in assay [2], 6.00 to 7.00; in assay [3], > 6.30.

For the compound `CCCOc1c(-c2ccc(OCCN(C)C)cc2)ccc2c1CC[C@H](C)N2C(C)=O` [I-486], the pIC50 is 6.30 to 7.30 in assay [1], 5.00 to 6.00 in assay [2] and > 6.30 in assay [3].

Turning to `COC(=O)N1c2ccc(-c3cnn(CCO)c3)c(Oc3ncc(C(F)(F)F)cc3F)c2CC[C@@H]1C` [I-590], the pIC50 is 6.30 to 7.30 in assay [1], 5.00 to 6.00 in assay [2] and 6.00 to 6.30 in assay [3].

Take `COC(=O)N1c2ccc(-c3cnn(C4CCNCC4)c3)c(Oc3cccc(Cl)c3)c2CC[C@@H]1C` [I-189, Methyl (S)-5-(3-chlorophenoxy)-2-methyl-6-(1-(piperidin-4-yl)-1H-pyrazol-4-yl)-3,4-dihydroquinoline-1(2H)-carboxylate]: the pIC50 in assay [1] was > 7.30; in assay [2], 6.00 to 7.00; in assay [3] it was > 6.30.

In the case of `COC(=O)N1c2ccc(-c3cnn(CC(C)(C)O)c3)c(Oc3ncc(C4CC4)cn3)c2CC[C@@H]1C` [I-571], the pIC50 was 6.30 to 7.30 in assay [1], 5.00 to 6.00 in assay [2] and 6.00 to 6.30 in assay [3].

As for `COC(=O)N1c2ccc(-c3cnn(C4CCOCC4)c3)c(OC3CCC3)c2CC[C@@H]1C` [I-68, (S)-methyl 5-cyclobutoxy-2-methyl-6-(1-(tetrahydro-2H-pyran-4-yl)-1H-pyrazol-4-yl)-3,4-dihydroquinoline-1(2H)-carboxylate], the pIC50 was > 7.30 in assay [1], 6.00 to 7.00 in assay [2] and > 6.30 in assay [3].

On to `C[C@H]1CCc2c(ccc(-c3cnn(C4CCNCC4)c3)c2Oc2ccc(F)c(Cl)c2)N1C(=O)C1CC1` [I-169, (S)-(5-(3-chloro-4-fluorophenoxy)-2-methyl-6-(1-(piperidin-4-yl)-1H-pyrazol-4-yl)-3,4-dihydroquinolin-1(2H)-yl)(cyclopropyl)methanone], for which the pIC50 in assay [1] was > 7.30; in assay [2] it was 6.00 to 7.00; in assay [3] it was > 6.30.

`COC(=O)N1c2ccc(-c3cnn(C4CC4)c3)c(Oc3ccccc3)c2CCC1C` (stereo not drawn) [I-599]: the results for the pIC50 in assay [1], in assay [2] and in assay [3] were 6.30 to 7.30, 5.00 to 6.00 and > 6.30, respectively.

Regarding `CC(=O)N1c2ccc(-c3cnn(C4CC4)c3)c(OC(C)C)c2CC[C@@H]1C` [I-388], the values for the pIC50 in assay [1], in assay [2] and in assay [3] were 6.30 to 7.30, 6.00 to 7.00 and 6.00 to 6.30, respectively.
